Data from patent US8614235B2, “CAI-based systems and methods for the localized treatment of ocular and other diseases” (RFE Pharma LLC, priority 2004, dated 2013).

Legend:
[1] = cited from earlier work
neovascularization = assay: Contemplated clinical cases, local ocular CAI against neovascularization; format: in vivo
Source text: The following contemplated clinical cases of angiogenesis are presented as examples of methods of treatment and not as limitations. Other illustrations of treating systemic or localized angiogenesis are not presented, since the principles involved are similar, and will be apparent to the skilled reader based upon review of an individual's clinical manifestation and the preferred embodiments of the inventive compositions.

[2] = patients; cited from earlier work
[3] = in vivo; cited from earlier work
[4] = single 5 mg peribulbar injection in humans; cited from earlier work

Compound | toxic effects observed in clinical studies ([1]; systemic oral dosing, doses required for effective circulating levels) | serious side effect of clinical use by systemic administration ([1]; two cases described (Berlin et al. 2002)) | neovascular regression (neovascularization; Example 9, proliferative diabetic retinopathy, intravitreal 50 mcg) | neovascular regression (neovascularization; Example 10, subfoveal membrane, intravitreal 200 mcg then periocular sustained release solution) | plasma concentrations associated with unacceptable toxicity [2] | serum half-life [3] [h] | dexamethasone detected in the vitreous cavity [4] [ng/mL]
NC(=O)c1nnn(Cc2cc(Cl)c(C(=O)c3ccc(Cl)cc3)c(Cl)c2)c1N [CAI] | cerebellar ataxia, peripheral neuropathy and exacerbation of depression | loss of vision | some neovascular regression | neovascular regression occurs | above 100 micromolar | 111 | –
C[C@@H]1C[C@H]2[C@@H]3CCC4=CC(=O)C=C[C@]4(C)[C@@]3(F)[C@@H](O)C[C@]2(C)[C@@]1(O)C(=O)CO [Dexamethasone] | – | – | – | – | – | – | 13
